In patent publication US12486229B2, “Indole derivative and application thereof” (SHANGHAI MEDICILON INC., priority 2020, dated 2025):

Columns and labels:
[1] = target: T1, S1P1 (Homo sapiens, UniProt P21453); assay: S1P1 overexpression cell activity by β-arrestin assay (U2OS-EDG1); format: cell-based; conditions: U2OS-EDG1 cells
T1 construct: host or cells: U2OS (human osteosarcoma) cell line, U2OS-EDG1
Procedure: The following experiments were conducted to detect the activity of the compound on S1P1 overexpression cells by β-arrestin assay. [table] [table] 3. Experimental Steps Day 1: Cell Seeding Plate and Compound Treatment • (1) Firstly, the compound was diluted by a 4-fold gradient into 10 concentration points from the concentration of 10 μM in the culture plate by using NL fluid transfer system, with 2 replicates at each concentration point. • (2) Cells were resuspended by using FreeStyle™ expression medium, and the cell density was adjusted to 7,500 cells per 40 μL suspension. The samples with test concentration were added into the well of the cell culture plate, and 40 μL cell suspension was added into the corresponding well. • (3) The above cell plates were incubated overnight in a CO2 incubator with 5% (volume fraction) at 37° C. Day 2: Detection and Data Analysis • (1) The buffer solution was prepared according to the preparation method in the instructions of LiveBLAser™-fluorescence resonance energy transfer B/G loading kit. • (2) 8 μL detection reagent was added to each well, which were shaken and mixed evenly for 1 minute, centrifugated at 1,000 rpm for 10 seconds, and incubated at 23° C. in dark for 2 hours. • 3) Detection was performed by multimode reader. • 4) The PrismDemo software was used to analyze the data and fit the curve. 4. Experimental Results

[2] = test system: DSS induced ulcerative colitis in mice; assay: DSS induced ulcerative colitis in mice; format: in vivo; parameters: key to Total stool scores: sum of shape (1-3) and bleeding (1-3) levels; normal = 1 each; Colon length: unit not given here; conditions: for Colon length / Colon weight / Effect on blood stool and loose stool compared with model group: day 9; for Colon weight compared with model group: P<0.05
Procedure: Molecular weight of DSS dextran sodium sulfate: 36,000 to 50,000, From MP Biomedical Company.
Preparation of molding agent: preparation of 3.5% DSS: 49 g DSS plus 1,400 mL high-temperature sterilized water.
Source of SPF male C57BL/6 mice: Beijing Weitong Lihua Experimental Animal Technology Co., Ltd. • Animal age at the beginning of the experiment: 6 to 8 weeks; • Animal weight at the beginning of the experiment: 22 to 25 g; • Adaptation time: 3 to 5 days;
The mice were divided into groups according to their weight, 10 mice in each group. The mice were administrated once a day by gavage (or blank) according to the following Table 4.
Animals were given 3.5% DSS solution for free drinking water modeling (the day of modeling was recorded as day 1), and the modeling agent was replaced once every two days for 7 consecutive days, and then (day 8) 3.5% DSS was replaced with ordinary drinking water for another 1 day.
• Preparation of solvent 1: 0.66 mL DMSO, 1.32 mL Solutol and 11.22 mL Saline were mixed to prepare 13.2 mL of solvent 1; • Preparation of solvent 2: 0.3 mL DMSO, 0.6 mL Solutol and 5.1 mL Saline were mixed to prepare 6 mL of solvent 2; • Preparation of solution of compound of Example 3: 39.6 mg of compound of Example 3 was dissolved in 13.2 mL of solvent 1 to obtain the solution of compound 1 of Example 3, the solution 1 of compound of Example 3 was diluted with solvent 1 to prepare the solution of compound of Example 3 with concentrations of 2 mg/mL, 1 mg/mL, and 0.6 mg/mL; • Etrasimod solution: 6 mg of Etrasimod was dissolve in 6 mL of solvent 2 to obtain Etrasimod solution; • Ozanimod solution: 12 mg of […] was dissolved in 6 mL solvent 2 to obtain Ozanimod solution; • Note: Prepare once every two days, and store in refrigerator at 4° C.
Wherein, the purity of compound of Example 3 was 99.74%, Ozanimod and Etrasimod were prepared by the method described in Example 8, and the purities were 99.78% and 98.47% respectively.
The mouse stool was observed on its shape, bleeding condition every two days, and scored. Scoring criteria for stool condition: shape: normal (level 1), soft stool (level 2), and loose stool (level 3); traits: normal (level 1), faint redness (level 2), and bloody stool visible to the unaided eye (level 3).
After the last administration (8 consecutive days), the animals were dissected on the next day (day 9), the colon was separated, the whole colon was photographed, and the colon length was measured. Then the colon was cut longitudinally along the mesenteric side to remove the contents, which was weighed and observed on the integrity of the colonic mucosa. The colon was then fixed in 10% formalin.

[3] = 6 mg/kg oral gavage once a day for 8 days
[4] = 10 mg/kg oral gavage once a day for 8 days
[5] = 20 mg/kg oral gavage once a day for 8 days
[6] = 30 mg/kg oral gavage once a day for 8 days
[7] = Day 1, 10 mg/kg oral gavage once a day
[8] = Day 2, 10 mg/kg oral gavage once a day
[9] = Day 3, 10 mg/kg oral gavage once a day
[10] = Day 4, 10 mg/kg oral gavage once a day
[11] = Day 5, 10 mg/kg oral gavage once a day
[12] = Day 6, 10 mg/kg oral gavage once a day
[13] = Day 7, 6 mg/kg oral gavage once a day
[14] = Day 7, 10 mg/kg oral gavage once a day
[15] = Day 7, 20 mg/kg oral gavage once a day
[16] = Day 7, 30 mg/kg oral gavage once a day
[17] = Day 8, 6 mg/kg oral gavage once a day
[18] = Day 8, 10 mg/kg oral gavage once a day
[19] = Day 8, 20 mg/kg oral gavage once a day
[20] = Day 8, 30 mg/kg oral gavage once a day
[21] = Day 9, 6 mg/kg oral gavage once a day
[22] = Day 9, 10 mg/kg oral gavage once a day
[23] = Day 9, 20 mg/kg oral gavage once a day
[24] = Day 9, 30 mg/kg oral gavage once a day

T1 sequence (P21453 whole entry): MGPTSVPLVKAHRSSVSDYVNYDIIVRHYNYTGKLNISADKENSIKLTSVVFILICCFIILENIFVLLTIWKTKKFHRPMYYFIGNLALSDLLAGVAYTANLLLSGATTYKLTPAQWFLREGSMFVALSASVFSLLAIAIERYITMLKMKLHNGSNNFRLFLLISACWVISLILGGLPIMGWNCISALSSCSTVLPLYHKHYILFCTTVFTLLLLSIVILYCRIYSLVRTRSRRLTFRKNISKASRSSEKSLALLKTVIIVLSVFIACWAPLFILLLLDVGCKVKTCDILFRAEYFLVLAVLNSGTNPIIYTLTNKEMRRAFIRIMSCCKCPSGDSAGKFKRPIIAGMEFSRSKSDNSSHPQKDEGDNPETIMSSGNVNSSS

How did the IC50 [1] turn out when `O=C(O)CCn1ccc2cc(OCc3ccc(C4CCCC4)c(C(F)(F)F)c3)cc(Cl)c21` [Compound of Example 3, 3-(7-chlorine-5-((4-cyclopentyl-3-(trifluoromethyl)benzyl)oxy)-1H-indole-1-yl)propionic acid] was run?
Its IC50 is 0.148 nM.

And the Colon length [2, 3]?
Its Colon length is 39.061 ± 1.17.

And the Colon weight [2, 3]?
The Colon weight was 0.164 ± 0.01 g.

And the “Colon weight compared with model group” value ([2]; 6 mg/kg)?
The value was “statistically significant difference compared with that of the model group”.

And the “Effect on blood stool and loose stool compared with model group” value (shortened to “Effect … compared with model group”) ([2]; 6 mg/kg)?
The value was “significantly improving blood stool and loose stool”.

And the Colon length [2, 4]?
The Colon length was 39.638 ± 0.76.

And the Colon weight [2, 4]?
The Colon weight was 0.164 ± 0.01 g.

What about the “Colon weight compared with model group” value ([2]; 10 mg/kg) of the same compound?
The value was “statistically significant difference compared with that of the model group”.

And the “Effect … compared with model group” value ([2]; 10 mg/kg)?
The value was “significantly improving blood stool and loose stool”.

And the “Colon length compared with model group” value ([2]; 20 mg/kg)?
Its value is “longer than that of the model group”.

What about the Colon length [2, 5] of the same compound?
The Colon length was 44.892 ± 1.83.

And the Colon weight [2, 5]?
Its Colon weight is 0.163 ± 0.01 g.

What about the “Colon weight compared with model group” value ([2]; 20 mg/kg) of the same compound?
Its value is “statistically significant difference compared with that of the model group”.

What about the “Effect … compared with model group” value ([2]; 20 mg/kg) of the same compound?
Its value is “significantly improving blood stool and loose stool”.

What about the “Colon length compared with model group” value ([2]; 30 mg/kg) of the same compound?
The value was “longer than that of the model group”.

What about the Colon length [2, 6] of the same compound?
The Colon length was 41.311 ± 1.25.

And the Colon weight [2, 6]?
Its Colon weight is 0.162 ± 0.01 g.

What about the “Effect … compared with model group” value ([2]; 30 mg/kg) of the same compound?
Its value is “significantly improving blood stool and loose stool”.

What about the Weight ([2]; Day 1, 6 mg/kg oral gavage once a day) of the same compound?
The Weight was 21.3 ± 0.26 g.

And the Weight [2, 7]?
The Weight was 21.9 ± 0.2 g.

And the Weight ([2]; Day 1, 20 mg/kg oral gavage once a day)?
Its Weight is 21.2 ± 0.34 g.

What about the Weight ([2]; Day 1, 30 mg/kg oral gavage once a day) of the same compound?
Its Weight is 21.5 ± 0.17 g.

What about the Weight ([2]; Day 2, 6 mg/kg oral gavage once a day) of the same compound?
Its Weight is 21.5 ± 0.27 g.

And the Weight [2, 8]?
The Weight was 22.1 ± 0.2 g.

What about the Weight ([2]; Day 2, 20 mg/kg oral gavage once a day) of the same compound?
Its Weight is 21.7 ± 0.29 g.

What about the Weight ([2]; Day 2, 30 mg/kg oral gavage once a day) of the same compound?
The Weight was 21.9 ± 0.17 g.

What about the Weight ([2]; Day 3, 6 mg/kg oral gavage once a day) of the same compound?
The Weight was 21.1 ± 0.3 g.

What about the Weight [2, 9] of the same compound?
Its Weight is 21.4 ± 0.32 g.

What about the Weight ([2]; Day 3, 20 mg/kg oral gavage once a day) of the same compound?
The Weight was 21.5 ± 0.33 g.

What about the Weight ([2]; Day 3, 30 mg/kg oral gavage once a day) of the same compound?
Its Weight is 21.4 ± 0.34 g.

And the Weight ([2]; Day 4, 6 mg/kg oral gavage once a day)?
Its Weight is 20.9 ± 0.47 g.

And the Weight [2, 10]?
The Weight was 21.3 ± 0.46 g.

And the Weight ([2]; Day 4, 20 mg/kg oral gavage once a day)?
The Weight was 21.8 ± 0.34 g.

What about the Weight ([2]; Day 4, 30 mg/kg oral gavage once a day) of the same compound?
The Weight was 21.1 ± 0.4 g.

What about the Weight ([2]; Day 5, 6 mg/kg oral gavage once a day) of the same compound?
The Weight was 21.1 ± 0.25 g.

And the Weight [2, 11]?
The Weight was 21.0 ± 0.6 g.

What about the Weight ([2]; Day 5, 20 mg/kg oral gavage once a day) of the same compound?
Its Weight is 21.5 ± 0.33 g.

What about the Weight ([2]; Day 5, 30 mg/kg oral gavage once a day) of the same compound?
The Weight was 21.1 ± 0.39 g.

And the Weight ([2]; Day 6, 6 mg/kg oral gavage once a day)?
The Weight was 20.5 ± 0.25 g.

What about the Weight [2, 12] of the same compound?
Its Weight is 20.4 ± 0.45 g.

What about the Weight ([2]; Day 6, 20 mg/kg oral gavage once a day) of the same compound?
The Weight was 20.3 ± 0.48 g.

And the Weight ([2]; Day 6, 30 mg/kg oral gavage once a day)?
Its Weight is 20.1 ± 0.58 g.

And the Total stool scores [2, 13]?
Its Total stool scores is 5.6 ± 0.17.

What about the Weight [2, 13] of the same compound?
The Weight was 19.2 ± 0.23 g.

What about the Total stool scores [2, 14] of the same compound?
The Total stool scores was 5.7 ± 0.22.

And the Weight [2, 14]?
Its Weight is 19 ± 0.46 g.

And the Total stool scores [2, 15]?
Its Total stool scores is 5.7 ± 0.21.

And the Weight [2, 15]?
Its Weight is 19 ± 0.46 g.

What about the Total stool scores [2, 16] of the same compound?
The Total stool scores was 5.4 ± 0.32.

What about the Weight [2, 16] of the same compound?
The Weight was 19.5 ± 0.52 g.

What about the Total stool scores [2, 17] of the same compound?
Its Total stool scores is 5.9 ± 0.11.

And the Weight [2, 17]?
Its Weight is 18.1 ± 0.38 g.

And the Total stool scores [2, 18]?
The Total stool scores was 5.7 ± 0.22.

And the Weight [2, 18]?
Its Weight is 17.8 ± 0.4 g.

What about the Total stool scores [2, 19] of the same compound?
Its Total stool scores is 5.9 ± 0.11.

What about the Weight [2, 19] of the same compound?
The Weight was 17.4 ± 0.58 g.

And the Total stool scores [2, 20]?
The Total stool scores was 5.6 ± 0.23.

What about the Weight [2, 20] of the same compound?
The Weight was 18.4 ± 0.51 g.

What about the Total stool scores [2, 21] of the same compound?
Its Total stool scores is 4.6 ± 0.

And the Weight [2, 21]?
Its Weight is 16.3 ± 0.33 g.

What about the Total stool scores [2, 22] of the same compound?
Its Total stool scores is 4.8 ± 0.26.

And the Weight [2, 22]?
The Weight was 16.2 ± 0.3 g.

And the Total stool scores [2, 23]?
Its Total stool scores is 4.8 ± 0.31.

And the Weight [2, 23]?
The Weight was 16.5 ± 0.4 g.

What about the Total stool scores [2, 24] of the same compound?
Its Total stool scores is 4.6 ± 0.39.

And the Weight [2, 24]?
The Weight was 17.2 ± 0.48 g.

What about the “Effect on colon atrophy” value ([2]; oral gavage for 8 consecutive days, 6-30 mg/kg) of the same compound?
The value was “certain inhibitory effect on colon atrophy”.

Which results are given for `O=C(O)C[C@H]1CCc2c1[nH]c1ccc(OCc3ccc(C4CCCC4)c(C(F)(F)F)c3)cc21` [Etrasimod, reference compound]?
IC50 [1]: 4.71 nM; Colon weight [2, 4]: 0.169 ± 0.01 g; Colon weight compared with model group ([2]; 10 mg/kg): statistically significant difference compared with that of the model group; Effect on blood stool and loose stool compared with model group ([2]; 10 mg/kg): had not significant improvement; Weight [2, 7]: 21.0 ± 0.26 g; Weight [2, 8]: 21.6 ± 0.24 g; Weight [2, 9]: 21.4 ± 0.25 g; Weight [2, 10]: 21.7 ± 0.29 g; Weight [2, 11]: 21.2 ± 0.27 g; Weight [2, 12]: 20.5 ± 0.22 g; Total stool scores [2, 14]: 6.0 ± 0; Weight [2, 14]: 19.2 ± 0.26 g; Total stool scores [2, 18]: 5.9 ± 0.11; Weight [2, 18]: 18.0 ± 0.3 g; Total stool scores [2, 22]: 5.6 ± 0; Weight [2, 22]: 16.6 ± 0.26 g
